According to US5597922A, “Glycine receptor antagonist pharmacophore” (priority 1994, dated 1997):
Like-named read-outs stand apart in the source and are kept apart here.

Experiments:
[1] = in words; cited from earlier work
[2] = molecular target: T1, glycine/NMDA receptor (Rattus norvegicus, UniProt P35439); experiment: inhibition of 1 μM glycine-stimulated [3H]-MK801 binding in rat brain membrane homogenates (glycine/NMDA receptor antagonist activity); details: for potency relative to DCK (% of DCK): relative to 5,7-dichlorokynurenic acid (DCK); for activity as antagonist for the glycine/NMDA receptor (in words): in vitro binding assay; for Ki: calculated from IC50 by Cheng and Prusoff equation
T1 construct: rat brain membrane homogenates which are enriched in NMDA receptors; tissue Pel-Freez, Rogers, Ark; (frozen rat brains); host or cells: rat brain membrane homogenates
Experimental: This assay takes advantage of the fact that the binding of [^3 H]-MK801 to the PCP receptor inside the pore of the NMDA channel is dependent on the presence of both glutamate and glycine. In the absence of glycine but in the presence of glutamate, [^3 H]-MK801 cannot bind effectively to the PCP receptor, because the NMDA channel remains closed and access of [^3 H]-MK801 to the PCP receptor inside the closed channel pore is severely restricted.
The assay is conducted using rat brain membrane homogenates which are enriched in NMDA receptors. The membranes are prepared as follows. Frozen rat brains (obtained from Pel-Freez, Rogers, Ark.) are homogenized in 15 volumes (w/v) of ice cold 0.32M sucrose. The homogenate is spun at 1,000×g for ten minutes. The supernatant is collected and spun for 20 minutes at 44,000×g. The pellet is suspended in 15 volumes of water (relative to original brain weight). The homogenate is again spun at 44,000×g for twenty minutes. The pellet is resuspended in 5 volumes of water and the suspension is freeze-thawed 2 times. After the final thaw cycle, the suspension is brought to 15 volumes with water and spun at 44,000×g for twenty minutes. The pellet is resuspended in 5 volumes of ice-cold […] HEPES, and is titrated to pH 7.4 with KOH containing 0.04% Triton X-100. Membranes are incubated with the Triton/HEPES buffer at 37° C. for 15 minutes. The volume is then brought to 15 with ice-cold 10 mM HEPES, pH 7.4, and spun/washed three times with spins of 44,000×g between washes. The final pellet is suspended in three volumes of 50 mM HEPES, pH 7.4 and the protein concentration is determined with a standard dye-binding protein assay (Bio-Rad, Richmond, Calif.). The suspension is stored at -80° C. until used. Only HPLC grade water is used for all buffers and suspensions/washings. The extensive washings are necessary to remove as much endogenous glycine from the membrane preparation as possible.
Nonspecific binding is defined as the […] presence of PCP (final concentration: 100 μM). To determine the effect of 1 μM glycine on the binding of [^3 H]-MK801, bound radioactivity in the presence of 10 μM glutamate alone (final concentration) is subtracted from the bound radioactivity in the presence of both 10 μM glutamate and 1 μM glycine (final concentration). A 500 nM concentration (final) of 5,7-dichlorokynurenic (DCK) acid is added to all assay tubes. This concentration of the glycine antagonist DCK "buffers" most of the residual endogenous glycine that is not removed by the extensive washing steps that are carried out during the membrane preparation procedure.
The assays are incubated for 120 minutes at room temperature after which time the membrane-bound radioactivity is isolated from the free radioactivity by vacuum filtration through Whatman glass fiber filters that had been pretreated with 0.3% polyethyleneimine. Filtration is accomplished using a Brandel 48 well cell harvester. Filtered membranes are washed three times with 3 mL each of ice cold buffer. Filters are transferred to scintillation vials and 5 mL of scintillation cocktail is added. The vials are shaken overnight and the radioactivity is counted by liquid scintillation spectroscopy. The assays are done in triplicate and all experiments are conducted at least three times.

[3] = tested on: glycine binding site of the NMDA receptor; details: Fletcher and Lodge (1988); cited from earlier work
[4] = molecular target: PCP receptor; details: Wong, E. H. F., et al. (1986); cited from earlier work
[5] = 1 μM glycine-stimulated [3H]-MK801 binding, rat brain membranes, unit μm [sic], read-out: IC50
[6] = 1 μM glycine-stimulated [3H]-MK801 binding, rat brain membranes, read-out: IC50

O=C(O)c1cc(O)c2ccc(Cl)cc2n1 [7-Cl-kynurenic acid]
blood/brain barrier penetration [1]: cannot penetrate the blood/brain barrier

O=c1[nH]c2ccccc2oc1=O [Compound 2, 4,1-Benzoxazine;2,3-dione]
IC50 [2, 5]: 167 µM | potency relative to DCK (% of DCK) [2]: 1.5%

COc1cc2ccccc2[nH]c1=O [Compound 5, 3-Methoxy-2-quinolone]
activity as antagonist for the glycine/NMDA receptor (in words) [2]: inactive

Oc1nc2ccccc2c(O)c1O [Compound 11, 2,3,4-Trihydroxyquinoline]
IC50 [2, 6]: 60 µM | potency relative to DCK (% of DCK) [2]: 4%

O=C1Nc2ccccc2C(=O)C1=O [Compound 12, Quinoline-2,3,4-trione]
IC50 [2, 6]: 50 µM | potency relative to DCK (% of DCK) [2]: 5%

O=C1Nc2ccccc2C1=O [Compound 13, Isatin]
activity as antagonist for the glycine/NMDA receptor (in words) [2]: not to be active

O=C1Nc2cc(Cl)cc(Cl)c2C1=O [Compound 13d, 4,6-Dichloroisatin]
activity as antagonist for the glycine/NMDA receptor (in words) [2]: not to be active

O=C1Nc2cc(Cl)c([N+](=O)[O-])c(Cl)c2C1=O [Compound 13e, 4,6-Dichloro-5(7)-nitroisatin]
IC50 [2, 5]: 96.5 µM | potency relative to DCK (% of DCK) [2]: 3%

O=c1[nH]c2ccccc2c(=O)o1 [Compound 14a, Isatoic anhydride]
IC50 [2]: 231 µM | potency relative to DCK (% of DCK) [2]: 1.1%

O=c1[nH]c2cc(Cl)c([N+](=O)[O-])c(Cl)c2c(=O)o1 [Compound 14d, 5,7-Dichloro-6(8)-nitroisatoic anhydride]
potency relative to DCK (% of DCK) [2]: 2.7%

O=C(O)c1cc(=O)c2ccccc2o1 [Compound 19]
activity as antagonist for the glycine/NMDA receptor (in words) [2]: only partially active

O=C1Nc2cc(Cl)c(Cl)cc2NC1[N+](=O)[O-] (stereo not shown) [Compound 33]
Ki ([2]; unit μm [sic]): 0.22 µM

O=c1[nH]c2cc(Cl)c(Cl)cc2[nH]c1=NO [Compound 37, 6,7-Dichloro-3-(hydroxyimino)-1,4-dihydroquinoxalin-2-one]
Ki [2]: 0.3 µM

O=C1C=CC(=O)Nc2ccccc2N1 [Compound 43, 1H-6H-1,6-Benzodiazocine-2,5-dione]
activity as antagonist for the glycine/NMDA receptor (in words) [2]: inactive

O=C1CNC(=O)c2ccccc2N1 [Compound 73a, 2,3,5-trihydro-1H,4H-1,4-Benzodiazepine-2,5-dione]
IC50 [2, 5]: 300 µM | potency relative to DCK (% of DCK) [2]: 1.0%

O=[N+]([O-])c1c(Br)c(Br)cc2nc(O)[nH]c12 [Example 50, 4-Nitro-5,6-dibromo-2-hydroxybenzimidazole]
Potency relative to DCK (in words) ([2]; relative to DCK): inactive

NC1CCN(O)C1=O (stereo not shown) [HA-966]
affinity for the glycine binding site (in words) [3]: micromolar affinity | type of activity at the glycine binding site (in words) [3]: partial agonist | blood/brain barrier penetration [1]: sufficiently penetrates the blood/brain barrier

C[C@]12N[C@H](Cc3ccccc31)c1ccccc12 [MK-801]
Kd [4]: ~0.003 µM

O=c1[nH]c2ccccc2[nH]c1=O [QX, 1,4-dihydroquinoxaline-2,3-dione, reference compound]
potency relative to DCK (% of DCK) [2]: 2%

O=C(O)c1cc2ccccc2[nH]1 [indole-2-carboxylic acid]
blood/brain barrier penetration [1]: cannot penetrate the blood/brain barrier
